Reference: article PMC2804746 (Biochemistry, 2008)

Assays:
taTrxR (Ta0984) = target: T1, taTrxR (Ta0984) (Thermoplasma acidophilum, UniProt Q9HJI4); experiment: X-ray crystal structure, […] Å; type: binding; conditions: one FAD per monomer, co-purified; crystals at pH 5.5, room temperature
T1 sequence (Q9HJI4 1-319): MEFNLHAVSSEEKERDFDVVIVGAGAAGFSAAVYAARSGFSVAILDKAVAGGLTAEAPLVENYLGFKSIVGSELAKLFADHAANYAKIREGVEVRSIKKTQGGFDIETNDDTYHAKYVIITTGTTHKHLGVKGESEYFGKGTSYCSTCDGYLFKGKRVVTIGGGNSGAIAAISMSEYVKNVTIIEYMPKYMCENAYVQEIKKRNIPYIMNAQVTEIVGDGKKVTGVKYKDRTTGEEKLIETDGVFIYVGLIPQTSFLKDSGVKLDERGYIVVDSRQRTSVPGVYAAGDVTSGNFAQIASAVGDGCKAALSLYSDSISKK

ecTrxR = ecTrxR (Escherichia coli, UniProt P0A9P4); experiment: anaerobic titration, reduction of bound FAD by visible spectra; type: biochemical; conditions: 50 mM TRIS, pH 7.5, 150 mM NaCl, 25 °C
Sequence of ecTrxR (P0A9P4 2-321): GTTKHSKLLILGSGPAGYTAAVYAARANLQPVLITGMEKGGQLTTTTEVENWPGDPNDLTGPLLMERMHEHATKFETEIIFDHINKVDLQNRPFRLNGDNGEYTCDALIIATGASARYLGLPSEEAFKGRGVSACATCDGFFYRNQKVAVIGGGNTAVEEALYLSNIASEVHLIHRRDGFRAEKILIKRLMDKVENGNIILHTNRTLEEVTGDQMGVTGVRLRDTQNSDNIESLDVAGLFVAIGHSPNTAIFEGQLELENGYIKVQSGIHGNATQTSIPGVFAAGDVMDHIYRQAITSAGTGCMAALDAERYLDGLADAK

SMILES | X-ray crystal structure, 2.35 Å; visible absorption spectrum (taTrxR (Ta0984)) | anaerobic titration, reduction of bound FAD by visible spectra (ecTrxR)
Cc1cc2nc3c(=O)[nH]c(=O)nc-3n(C[C@H](O)[C@H](O)[C@H](O)COP(=O)(O)OP(=O)(O)OC[C@H]3O[C@@H](n4cnc5c(N)ncnc54)[C@H](O)[C@@H]3O)c2cc1C [FAD] | The taTrxR structure has one FAD molecule bound in a similar conformation as the ecTrxR structure | –
NC(=O)C1=CN([C@@H]2O[C@H](COP(=O)(O)OP(=O)(O)OC[C@H]3O[C@@H](n4cnc5c(N)ncnc54)[C@H](O)[C@@H]3O)[C@@H](O)[C@H]2O)C=CC1 [NADH] | – | NADH does reduce the flavin to some extent in this protein
NC(=O)C1=CN([C@@H]2O[C@H](COP(=O)(O)OP(=O)(O)OC[C@H]3O[C@@H](n4cnc5c(N)ncnc54)[C@H](OP(=O)(O)O)[C@@H]3O)[C@@H](O)[C@H]2O)C=CC1 [NADPH] | – | titration of ecTrxR with NADPH results in a rapid reduction of the bound FAD
